Measurements published in patent US20070203060A1, “Casein Derived Peptides And Therapeutic Uses Thereof” (priority 2004, published 2007).
Values joined by “and” are separate entries in the source; they are usually repeats but may differ in a detail not shown here. Equal values may be shown once.

How the values were obtained:
[1] = test system: glucose metabolism in NOD mice; test: Intraperitoneal Glucose Tolerance Test (IPGTT) in NOD mice; assay type: in vivo, mouse; details: NOD mice, three injections of 1 mg each, 3 days apart; 25 weeks
Experimental: Intraperitoneal Glucose Tolerance Test (IPGTT): The glucose tolerance test is the definitive method for investigating glucose metabolism and diabetic tendencies in mammals. Twenty five (25) weeks after receiving Synthetic peptides derived from casein, response to a glucose load was assessed with an intraperitoneal glucose tolerance test. Glucose injection consisted of 1 g/kg body weight. Glycemic values were determined from blood drawn prior to test (0 minutes) and 60 minutes after loading.

[2] = test system: Juvenile (Type I, IDDM) diabetes in NOD mice; test: Glucosuria in Non-Obese Diabetic (NOD) mice; assay type: in vivo, mouse; details: three injections of 1 mg each, 3 days apart, at 25 weeks
Experimental: Juvenile (Type I, IDDM) diabetes in Non-Obese Diabetic (NOD) mice:
Peptides derived from natural casein: NOD mice are a commonly used model for research of autoimmune disease and human Juvenile Diabetes. Six week old female NOD mice received either one or two injections per week of 100 μg of peptides derived from natural casein, for a total of 5 or 10 treatments. Control mice received no treatment. The severity of disease was determined according to glucosuria, which was measured using Combi test sticks [Gross, D. J. et al. (1994), Diabetology, 37:1195]. Results were expressed as the percent of glucosuria-free mice in each sample over a 365-day period.
Synthetic peptides derived from casein: In another experiment, 6 week old female NOD mice received two injections per week of 100 μg of Synthetic peptides derived from casein for a total of 10 treatments, or three injections of 1 mg each, 3 days apart, for a total of 3 treatments. Control mice received no treatment. Results were expressed as the number of healthy mice in the various treated groups.

[3] = test system: peripheral white blood cells of myeloablated, bone marrow transplanted mice; test: Leukocyte reconstitution in irradiated bone marrow transplant recipient mice; assay type: in vivo, mouse; details: BALB/c, 600 cGy, 1 mg per mouse i.p.
[4] = test system: murine primary bone marrow cells (CFU-GEMM); test: Multipotential colonies (CFU-GEMM) from murine bone marrow cells, colony and differential counts; assay type: cell-based, mouse; details: 8 days treatment
Experimental: Proliferation of megakaryocytes in multipotential colonies (CFU-GEMM) from murine Bone Marrow cells: Primary bone marrow cells (1×10^5 per ml) from 8-12 week-old C3H/HeJ mice were grown in serum-free methyl cellulose-IMDM medium for 8-9 days at 5% CO2, 95% air, at 37° C. The medium, appropriate for the growth of multipotential colonies (CFU-GEMM), contained 1% BSA (Sigma), 10^−4 M thioglycerol (Sigma), 2.8×10^−4 M human transferrin (TF, Biological industries, Israel), 10% WEHI-CM as a source of IL-3 and 2 units per ml erythropoietin (rhEPO, R & D Systems, Minneapolis). […] They were picked with a micropipette, cytocentrifuged and stained with May-Grunwald-Giemsa for differential counts. At least 700 cells were counted for each preparation. […]

Row | Sequence | blood glucose values in response to a glucose load (IPTG test) [1] | mice in which no glucosuria was detected [2] | peripheral white blood cell count ([3]; day 10) | peripheral white blood cell count ([3]; day 12) | megakaryocyte formation and development (in words) [4]
1 | RPKHPIKHQGLPQEV [C] | 101 and 113 and 102 | 3 out of 5 | 1.72 ×10^6 cells per ml | 6.54 ×10^6 cells per ml | –
2 | RPKHPIKHQGLPQEVLNEN | < 120 | two out of 5 | – | – | significant increase
